Laboratory results published in US20110263423A1, “Plant Health Composition” (BASF SE, priority 2008, published 2011).

Key:
Assay type in all cases: in vivo
[1] = test system: spring wheat (cv. Passat); assay: Spring wheat pot trial, severe drought stress (Example 2)
Experimental: Spring wheat (cv. Passat) was cultivated in Mitcherlich pots as described above in example 1. The experiment was conducted with 6 replications in a vegetation hall. Experiments were carried out under semi controlled conditions at very low disease-pressure with insignificant infection rates, protected from any undesired rain or water impact. The water consumption of each pot was calculated on the basis of the recorded measurements of the weight of the pots prior to each irrigation event up to the defined set point.
Nitrogen fertilizer (totally 1.75 g N/pot) was added in equal amounts at 3 stages to allow optimal growth conditions throughout the life cycle. All plants/pots were grown at optimal water supply by watering 2-3 times a day to 60% of the water holding capacity of the soil until growth stage 55 (BBCH). Then, pots were only watered to 60% of the maximum water holding capacity of the soil after clear water stress symptoms on the plants were visible to apply severe drought stress.
Compound Ia (62.5 g/l, 2 L in 400 L water/ha) was applied at growth stage 39/49 (BBCH scale), which is an EC formulation of compound Ia. Control plants were not treated.
After ripening of the plants, the grain was harvested and uniformly dried to 5% moisture content. Grain yield per pot, grain yield per ear, number of grains per ear and number of grains per pot were determined as indicators of plant vigor and plant yield. The relation of grain yield to straw added to the grain yield was used to calculate the harvest index.

[2] = test system: Maize (Pioneer 34-N-45); assay: Maize field trial, mixture with epoxiconazol, Colby synergism (Example 6); settings: 50 g a.i./ha of each compound
Experimental: Maize was grown in 2008 in a field trial at the BASF experimental station in Dinuba, 10181 Avenue 416, Calif., U.S.A. The variety Pioneer 34-N-45 was planted at a seeding rate of 35.000 plants/ha. The trial was setup as a randomized bloc design with 5 replications, each. Plot size was 43 m^2.
The maize plants were either untreted, treated with epoxiconazol (A3), with compound Ia, and with a mixture comprising compound Ia and epoxiconazol. Epoxiconazol was applied as the commercial formulation OPUS™ (125 g a.i./L, SC formulation) at a dose rate of 0.4 L/ha (50 g a.i./ha). Compound Ia was used as an EC formulation (62.5 g a.i./L) with a dose rate of 0.8 L per hectar (50 g a.i./ha). Epoxiconazol was applied together with compound Ia (as a mixture) using a co-formulation of both compounds (EC formulation, 62.5 g a.i./L each) with a product rate of 0.8 L/ha. The formulation was applied in a total spray volume of 300 L/ha. Compound Ia was sprayed at growth stage 51/55 (BBCH) with a tractor mounted spray boom with VS11003 spray nozzles at 3 bar spray pressure.
(§1) No disease symptoms were visible at the application time and no symptoms were detected at later stages.
At maturity the grain was harvested and the grain yield per plot, as an indicator of plant yield, was determined (kg/plot). Finally, the grain yield per hectare was calculated (dt/ha).
The efficacy was calculated as % increase of the grain yield (dt/ha) by each treatment compared to the untreated control.
The expected efficacies of the combinations of the active compounds were estimated using Colby's formula (Colby, S. R., Calculating synergistic and antagonistic responses of herbicide combinations, Weeds, 15, pp. 20-22, 1967) and compared with the observed efficacies.
E=x+y−x·y/100 Colby's formula: • E expected efficacy, expressed in % of the untreated control, when using the mixture of the active compounds A and B at the concentrations a and b • x efficacy, expressed in % of the untreated control, when using the active ingredient A at the concentration a • y efficacy, expressed in % of the untreated control, when using the active ingredient B at the concentration b

[3] = test system: Soybeans (Pioneer 93-M-11, Crow C300 42); assay: Soybean field trials, Dinuba 2008 (Example 4)
Experimental: Soybeans were grown in 2008 in two field trials at the BASF experimental station in Dinuba, 10181 Avenue 416, Calif., U.S.A. In one trial, the variety Pioneer 93-M-11 was planted at a seeding rate of 88 kg/ha. In a second trial, the variety Crow C300 42 was planted at the same seeding rate. Both trials were setup as randomized complete block design with 5 replications, each. Plot size was 42 m^2. Compound la was used as an EC formulation (62.5 g a.i./L) with a dose rate of 0.64 L per hectar (40 g a.i./ha). The formulation was applied in a total spray volume of 300 L/ha. Compound Ia was sprayed at growth stage 34/37 (BBCH) with a tractor mounted spray boom with VS11003 spray nozzles at 3 bar spray pressure.
as §1
Green leaf area, as an indicator of plant vigor, was assessed in the second trial (variety Crow C300 42) when all pods had reached their final size by estimating the green leaf area in 10 randomly chosen plants per plot. At maturity the grain was harvested and the grain yield per plot, as an indicator of plant yield, was determined (kg/plot). Finally, the grain yield per hectare was calculated (dt/ha). Thousand Grain Weight (TGW) was determined in the second trial (Crow C300 42).

[4] = severe drought stress from BBCH 55, 2 L/ha EC at BBCH 39/49
[5] = 40 g a.i./ha, listed as compound Ia

## Cn1cc(C(=O)Nc2ccccc2-c2cc(F)c(F)c(F)c2)c(C(F)F)n1 [Compound Ia, N-(3′,4′,5′-trifluorobiphenyl-2-yl)-3-difluoromethyl-1-methyl-1H-pyrazole-4-carboxamide]
[1]; severe drought stress
  Harvest index, change vs untreated control: (+3%)
  Number of grains per ear, change vs untreated control: (+3%)
  Single ear grain yield, change vs untreated control: (+3%)
[1]; [4]
  Harvest index (grain yield g/grain + straw yield g): 0.42
  Number of grains per ear: 49.9
  Single ear grain yield: 1.31 g/ear
[2]
  Observed efficacy (% increase of grain yield vs untreated control): 0.4%
[2]; BBCH 51/55
  Grain yield: 154.9 dt/ha
[3]; 40 g a.i./ha
  Soybean grain yield (Trial 1) Pioneer 93M11, increase as % of untreated: (+11.6%)
  Soybean grain yield (Trial 2) Crow C300 42, increase as % of untreated: (+6.5%)
  Soybean grain yield, Mean of two trials, increase as % of untreated: (+8.5%)
[3]; 40 g a.i./ha at BBCH 34/37
  Soybean grain yield (Trial 1) Pioneer 93M11: 45.5 dt/ha
  Soybean grain yield (Trial 2) Crow C300 42: 67.1 dt/ha
  Soybean grain yield, Mean of two trials: 56.3 dt/ha
[3]; [5]
  Soybean grain yield (Trial 1) Pioneer 93M11, increase as % of untreated: ~12%
  Soybean grain yield, Mean of two trials, increase as % of untreated: 8.5%
[3]; soybean Crow C300 42 (second trial), 40 g a.i./ha at BBCH 34/37
  TGW: 177.0 g
[3]; soybean Crow C300 42 (second trial), 40 g a.i./ha at BBCH 34/37, pods at final size
  % Green leaf area: 88.4%
[3]; soybean Crow C300 42, 40 g a.i./ha
  TGW, increase as % of untreated: (+5.7%)
